Test: Peptide solubility in aqueous buffers and water
Protocol: These peptides contained two glutamate or arginine residues at the N- and C-termini for increased solubility. The full amino acid sequence of the purchased Aβ was […] (Peptide 2.0 Inc. Company) and […] (Sigma-Aldrich). The peptide mass was verified using MALDI-TOF mass spectroscopy. To dissolve the peptides, phosphate and acetate aqueous buffers were prepared. None of the buffers contained hydrophobic solvents known to solubilize and stabilize α-helices (i.e. TFE or HFPI) or surfactants known to dissolve hydrophobic peptides (i.e. SDS). Henceforth, the Aβ17–34 peptide refers to the peptide flanked by two glutamates.
To solubilize Aβ, several approaches were taken. One approach was to add two arginines at the N- and C-termini. […] Another approach was to add two glutamic acids at the N- and C-termini.

Row | effect of terminal residue addition on solubility | solubility in water | solubility in 50 mM acetate buffer at pH 7 (pH 7) | solubility in 50 mM phosphate buffer at pH 7 (pH 7) | Structure (SMILES) | solubility in acetate and phosphate buffers at pH 1, 7 and 10 (acetate and phosphate aqueous buffers, pH 1, 7 and 10, no TFE, HFPI or SDS, compared with peptide without flanking residues)
1 |  |  |  |  | CC[C@H](C)[C@H](NC(=O)[C@H](C)NC(=O)CNC(=O)[C@H](CCCCN)NC(=O)[C@H](CC(N)=O)NC(=O)[C@H](CO)NC(=O)CNC(=O)[C@@H](NC(=O)[C@H](CC(=O)O)NC(=O)[C@H](CCC(=O)O)NC(=O)[C@H](C)NC(=O)[C@H](Cc1ccccc1)NC(=O)[C@H](Cc1ccccc1)NC(=O)[C@@H](NC(=O)[C@H](CC(C)C)NC(=O)[C@H](CCCNC(=N)N)NC(=O)[C@@H](N)CCCNC(=N)N)C(C)C)C(C)C)C(=O)N[C@H](C(=O)NCC(=O)N[C@@H](CC(C)C)C(=O)N[C@@H](CCCNC(=N)N)C(=O)N[C@@H](CCCNC(=N)N)C(=O)O)[C@@H](C)CC | did not improve solubility
2 | improved solubility drastically | not in water | soluble | soluble | CC[C@H](C)[C@H](NC(=O)[C@H](C)NC(=O)CNC(=O)[C@H](CCCCN)NC(=O)[C@H](CC(N)=O)NC(=O)[C@H](CO)NC(=O)CNC(=O)[C@@H](NC(=O)[C@H](CC(=O)O)NC(=O)[C@H](CCC(=O)O)NC(=O)[C@H](C)NC(=O)[C@H](Cc1ccccc1)NC(=O)[C@H](Cc1ccccc1)NC(=O)[C@@H](NC(=O)[C@H](CC(C)C)NC(=O)[C@H](CCC(=O)O)NC(=O)[C@@H](N)CCC(=O)O)C(C)C)C(C)C)C(=O)N[C@H](C(=O)NCC(=O)N[C@@H](CC(C)C)C(=O)N[C@@H](CCC(=O)O)C(=O)N[C@@H](CCC(=O)O)C(=O)O)[C@@H](C)CC [Aβ17–34 peptide] | 

From publication PMC4242080, “NMR structure of the water soluble Aβ17–34 peptide” (Bioscience Reports, 2014)
